Measured values: patent US20240287079A1, “6-AMINOPYRAZOLOPYRIMIDINE COMPOUND AND PHARMACEUTICAL USE THEREOF” (Japan Tobacco Inc., priority 2021, published 2024)

Target: NLRP3 inflammasome (Homo sapiens (Human), UniProt Q96P20)
Test: Evaluation of NLRP3 inflammasome inhibitory activity (inhibition of IL-1β production in LPS/Nigericin-stimulated THP1-Null cells)
Type: cell-based
Conditions: IL-1β production in THP1-Null cells; for IC50: PMA, LPS 1 μg/mL, Nigericin 7.5 μmol/L, AlphaLISA; for inhibition at 0.0024 µM: test compound 0.0024 μM
Method in brief: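 THP1-Null cells primed with 1 μg/mL LPS, then treated with test compound; supernatant IL-1β quantified by AlphaLISA. Inhibition calculated with blank wells as 100% and control wells as 0%.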

Chain of NLRP3 inflammasome (Q96P20 whole entry): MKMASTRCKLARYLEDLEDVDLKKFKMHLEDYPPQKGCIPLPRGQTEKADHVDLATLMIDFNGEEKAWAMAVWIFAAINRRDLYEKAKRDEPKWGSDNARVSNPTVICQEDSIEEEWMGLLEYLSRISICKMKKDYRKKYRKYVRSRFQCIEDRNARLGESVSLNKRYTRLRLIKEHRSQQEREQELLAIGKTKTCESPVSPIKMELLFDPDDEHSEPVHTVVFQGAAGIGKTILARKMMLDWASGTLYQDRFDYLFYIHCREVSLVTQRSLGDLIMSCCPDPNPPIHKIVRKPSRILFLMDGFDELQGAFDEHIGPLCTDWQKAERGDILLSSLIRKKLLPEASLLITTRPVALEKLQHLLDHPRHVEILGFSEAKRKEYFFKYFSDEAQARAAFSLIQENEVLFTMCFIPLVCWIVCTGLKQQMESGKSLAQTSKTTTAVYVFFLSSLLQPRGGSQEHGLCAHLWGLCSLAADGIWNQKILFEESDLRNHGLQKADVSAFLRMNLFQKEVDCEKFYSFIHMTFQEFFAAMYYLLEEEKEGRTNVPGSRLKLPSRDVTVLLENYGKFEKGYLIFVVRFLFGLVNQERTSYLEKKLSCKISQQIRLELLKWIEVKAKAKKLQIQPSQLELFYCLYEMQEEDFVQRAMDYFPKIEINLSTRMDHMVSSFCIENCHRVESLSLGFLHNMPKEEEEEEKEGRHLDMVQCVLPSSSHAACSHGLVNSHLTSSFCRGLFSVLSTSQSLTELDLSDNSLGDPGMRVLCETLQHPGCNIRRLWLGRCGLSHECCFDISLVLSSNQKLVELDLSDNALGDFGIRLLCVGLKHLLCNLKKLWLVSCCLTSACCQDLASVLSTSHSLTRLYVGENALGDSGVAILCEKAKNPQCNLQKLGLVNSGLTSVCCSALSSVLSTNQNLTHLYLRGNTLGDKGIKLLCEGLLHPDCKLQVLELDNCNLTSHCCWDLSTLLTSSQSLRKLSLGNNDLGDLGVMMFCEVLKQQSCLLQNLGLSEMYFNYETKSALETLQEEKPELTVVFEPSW

Row | Structure (SMILES) | IC50 [nM] | further results
1 | Cc1cccc(C)c1-n1cc2c(=O)[nH]c(N3CCCC3)nc2n1 [Example 11] | 200 | 
2 | O=c1[nH]c(N2CCCNCC2)nc2nn(-c3ccc(C(F)(F)F)cc3Cl)cc12 [Example 133] | 63 | 
3 | COCCN(C)c1nc2nn(-c3c(C)cc(Br)cc3C)cc2c(=O)[nH]1 [Example 337] | 47 | 
4 | Cc1cc(C)c(-n2cc3c(=O)[nH]c(N4CCNCC4)nc3n2)c(C)c1 [Example 102] | 130 | 
5 | Cc1cc(Br)cc(C)c1-n1cc2c(=O)[nH]c(NC3CC3)nc2n1 [Example 230] |  | inhibition at 0.0024 µM: 60%
6 | Cc1cc(Br)cc(C)c1-n1cc2c(=O)[nH]c(N(C)C(C)C)nc2n1 [Example 291] | 16 | 
7 | O=c1[nH]c(N2CCOCC2)nc2nn(-c3ccc(OC(F)F)cc3C(F)(F)F)cc12 [Example 325] | 31 | 
8 | Cc1cc(Br)cc(C)c1-n1cc2c(=O)[nH]c(N3C4CC3CN(S(C)(=O)=O)C4)nc2n1 [Example 221] | 25 | 
9 | COc1ccccc1CN(C)c1nc2nn(-c3ccccc3C)cc2c(=O)[nH]1 [Example 7] | 22000 | 
10 | Cc1cc(C)c(-n2cc3c(=O)[nH]c(N4CC(F)(F)C4)nc3n2)c(C)c1 [Example 92] | 11 | 
11 | Cc1cc(C2CC2)cc(C)c1-n1cc2c(=O)[nH]c(N3CC4CC(C3)O4)nc2n1 [Example 232] | 6 | 
12 | C#Cc1ccc(-n2cc3c(=O)[nH]c(N4CCCC4)nc3n2)c(C)c1 [Example 119] | 16 | 
13 | CCC(C)n1nc(C)c(-n2cc3c(=O)[nH]c(N4CCCC4)nc3n2)c1C (racemic) [Example 347] | 920 | 
14 | Cc1ccccc1-n1cc2c(=O)[nH]c(N3CCCCC3)nc2n1 [Example 15] | 1500 | 
15 | Cc1cc(Br)cc(C)c1-n1cc2c(=O)[nH]c(N3CCCC3)nc2n1 [Example 280] | 4.2 | 
16 | Cc1cc(C2CC2)cc(C)c1-n1cc2c(=O)[nH]c(N3CCC3)nc2n1 [Example 328] | 5.8 | 
17 | Cc1cc(C)c(-n2cc3c(=O)[nH]c(N4CCOCC4)nc3n2)c(C)c1 [Example 96] | 14 | 
18 | Cc1cc(Br)cc(C)c1-n1cc2c(=O)[nH]c(N3CCc4cccnc43)nc2n1 [Example 340] | 470 | 
19 | Cc1cc(C)c(-n2cc3c(=O)[nH]c(N4CCOCC4)nc3n2)c(Cl)c1 [Example 148] | 19 | 
20 | COc1nc(N2CCOCC2)nc2nn(-c3ccc(Br)cc3C)cc12 [Example 89, 4-(2-(4-bromo-2-methylphenyl)-4-methoxy-2H-pyrazolo[3,4-d]pyrimidin-6-yl)morpholine] |  | inhibition at 0.024 µM (test compound 0.024 μM): 77%
21 | CO[C@H]1CCN(c2nc3nn(-c4c(C)cc(C5CC5)cc4C)cc3c(=O)[nH]2)C1 [Example 319] | 24 | 
22 | Cc1ccccc1-n1cc2c(=O)[nH]c(N3CCOCC3C)nc2n1 (racemic) [Example 17] | 2800 | 
23 | Cc1ccccc1-n1cc2c(=O)n(C)c(N3CCCC3)nc2n1 [Example 14] | 7200 | 
24 | O=c1[nH]c(N2CCCC2)nc2nn(-c3c(F)cccc3F)cc12 [Example 10] | 2400 | 
25 | COC[C@@H]1CCCN1c1nc2nn(-c3ccccc3C)cc2c(=O)[nH]1 [Example 42] | 4200 | 
26 | Cc1cc(Br)ccc1-n1cc2c(OCC3CC3)nc(N3CCOCC3)nc2n1 [Example 155] | 290 | 

Row | Structure (SMILES) | IC50 [nM] | further results
27 | Cc1cc(Br)cc(Cl)c1-n1cc2c(=O)[nH]c(N3CC4CC(C3)O4)nc2n1 [Example 296] | 14 | 
28 | Cc1cc(Br)ccc1-n1cc2c(=O)[nH]c(N3CCCC3)nc2n1 [Example 62] | 9.1 | 
29 | Cc1cc(C)c(-n2cc3c(=O)[nH]c(N4CCCC(CO)C4)nc3n2)c(C)c1 (racemic) [Example 116] | 79 | 
30 | CCc1ccc(-n2cc3c(=O)[nH]c(N4CCCC4)nc3n2)c(C)c1 [Example 120] | 19 | 
31 | CCNc1nc2nn(-c3c(C)cc(Br)cc3C)cc2c(=O)[nH]1 [Example 227] |  | inhibition at 0.0024 µM: 52%
32 | Cc1cc(C)c(-n2cc3c(=O)[nH]c(N4CCN(S(=O)(=O)C5CC5)CC4)nc3n2)c(C)c1 [Example 103] | 6.5 | 
33 | COCc1cc(Cl)ccc1-n1cc2c(=O)[nH]c(N3CC(F)(F)C3)nc2n1 [Example 161] | 22 | 
34 | Cc1cc(C(F)(F)F)ncc1-n1cc2c(=O)[nH]c(N3CC(F)(F)C3)nc2n1 [Example 99] | 82 | 
35 | Cc1c2c(=O)[nH]c(N3CCCC3)nc2nn1-c1ccc(C(F)(F)F)cc1 [Example 151] | 50 | 
36 | Cc1cc(Cl)cc(C=O)c1-n1cc2c(=O)[nH]c(N3CCOCC3)nc2n1 [Example 160] | 36 | 
37 | Cc1cc(Br)cc(C)c1-n1cc2c(=O)[nH]c(N3CC4COC(C4)C3)nc2n1 (racemic) [Example 279] | 15 | 
38 | Cc1ccccc1-n1cc2c(=O)[nH]c(N3CCC3)nc2n1 [Example 16] | 1300 | 
39 | O=c1[nH]c(N2CCCC2)nc2nn(-c3ccc(Cl)cc3Cl)cc12 [Example 127] | 13 | 
40 | Cc1ccccc1-n1cc2c(=O)[nH]c(N3CCCCCC3)nc2n1 [Example 22] | 8200 | 
41 | Cc1cc(Br)cc(C)c1-n1cc2c(=O)[nH]c(N3CCN(C)CC3)nc2n1 [Example 246] | 15 | 
42 | Cc1cc(Br)cc(C)c1-n1cc2c(=O)[nH]c(N3CCC(F)(F)C3)nc2n1 [Example 283] | 7.1 | 
43 | Cc1cc(Br)ccc1-n1cc2c(=O)[nH]c(N3CC(F)(F)C3)nc2n1 [Example 76] | 4.8 | 
44 | Cc1cc(C2CC2)cc(C)c1-n1cc2c(=O)[nH]c(N3C[C@@H]4C[C@H]3CO4)nc2n1 [Example 207] | 5.9 | 
45 | Cc1cc(Cl)cc(C)c1-n1cc2c(=O)[nH]c(N3CCOCC3)nc2n1 [Example 166] | 16 | 
46 | CC(=O)NC1CCN(c2nc3nn(-c4c(C)cc(C)cc4C)cc3c(=O)[nH]2)C1 (racemic) [Example 111] | 56 | 
47 | Cc1cc(Br)ccc1-n1cc2c(=O)n(C)c(N3CCN(S(C)(=O)=O)CC3)nc2n1 [Example 138] | 140 | 
48 | O=c1[nH]c(N2CCOCC2)nc2nn(-c3ccc(Br)cc3CO)cc12 [Example 104] | 140 | 
49 | CC(=O)N1CCN(c2nc3nn(-c4c(C)cc(C5CC5)cc4C)cc3c(=O)[nH]2)[C@H](C)C1 [Example 290] | 10 | 
50 | Cc1cc(Br)ccc1-n1cc2c(=O)[nH]c(NCc3ccccc3)nc2n1 [Example 74] | 25 | 
51 | Cc1cc(Cl)cc(C(C)C)c1-n1cc2c(=O)[nH]c(N3CCOCC3)nc2n1 (racemic) [Example 188] | 89 | 
52 | Cc1cc(C(F)(F)F)cc(C)c1-n1cc2c(=O)[nH]c(N3C[C@@H]4C[C@H]3CO4)nc2n1 [Example 250] | 8.9 | 

Row | Structure (SMILES) | IC50 [nM] | further results
53 | Cc1cc(C(F)(F)F)cc(C)c1-n1cc2c(=O)[nH]c(N3C[C@H]4C[C@@H]3CO4)nc2n1 [Example 249] | 3.3 | 
54 | Cc1ccc(-n2cc3c(=O)[nH]c(N4CCCC4)nc3n2)cc1 [Example 40] | 770 | 
55 | Cc1cc(C(F)(F)F)ncc1-n1cc2c(=O)[nH]c(N3CCOCC3)nc2n1 [Example 98, 2-(4-methyl-6-(trifluoromethyl)pyridin-3-yl)-6-morpholino-2,5-dihydro-4H-pyrazolo[3,4-d]pyrimidin-4-one] | 54 | 
56 | Cc1cc(C(F)(F)F)cnc1-n1cc2c(=O)[nH]c(N3CCOCC3)nc2n1 [Example 122] | 180 | 
57 | Cc1cc(C2CC2)cc(C)c1-n1cc2c(=O)[nH]c(N3CCN(S(C)(=O)=O)CC3)nc2n1 [Example 125] |  | inhibition at 0.0024 µM: 52%
58 | Cc1cc(Br)cc(F)c1-n1cc2c(=O)[nH]c(N3CCOCC3)nc2n1 [Example 254] | 14 | 
59 | Cc1cc(Br)cc(Cl)c1-n1cc2c(=O)[nH]c(N3CCOCC3)nc2n1 [Example 146] | 9.2 | 
60 | Cc1cc(Cl)cc(CO)c1-n1cc2c(=O)[nH]c(N3CCOCC3)nc2n1 [Example 158] | 92 | 
61 | COCC(=O)N1CCN(c2nc3nn(-c4ccc(Br)cc4C)cc3c(=O)[nH]2)CC1 [Example 141] | 9.6 | 
62 | O=c1[nH]c(N2CCOCCO2)nc2nn(-c3ccc(Br)cc3C(F)(F)F)cc12 [Example 355] | 43 | 
63 | Cc1nn(C2CCCC2)c(C)c1-n1cc2c(=O)[nH]c(N3CCCC3)nc2n1 [Example 350] | 1200 | 
64 | Cc1ccc(-n2cc3c(=O)[nH]c(N4CC(F)(F)C(F)(F)C4)nc3n2)c(C)c1 [Example 85] | 24 | 
65 | Cc1cc(Br)cc(C)c1-n1cc2c(=O)[nH]c(N3CCOCC3=O)nc2n1 [Example 353] | 76 | 
66 | O=c1[nH]c(N2CCCC2CO)nc2nn(-c3ccc(C(F)(F)F)cc3Cl)cc12 (racemic) [Example 178] | 33 | 
67 | Cc1cc(Br)ccc1-n1cc2c(OC(C)C)nc(N3CCOCC3)nc2n1 [Example 136] | 230 | 
68 | [2H]C([2H])([2H])Nc1nc2nn(-c3c(C)cc(Br)cc3C)cc2c(=O)[nH]1 [Example 229] | 9.4 | 
69 | Cc1cc(C2CC2)cc(C)c1-n1cc2c(=O)[nH]c(N3CCC(C#N)C3)nc2n1 (racemic) [Example 324] | 6.2 | 
70 | O=c1[nH]c(N2CCOCC2)nc2nn(-c3c(F)cc(C(F)(F)F)cc3Cl)cc12 [Example 189] | 20 | 
71 | COc1ccc(-n2cc3c(=O)[nH]c(N4CCCC4)nc3n2)c(C)c1 [Example 171] | 29 | 
72 | CC(C)(C)OC(=O)N1CCCN(c2nc3nn(-c4ccc(C(F)(F)F)cc4Cl)cc3c(=O)[nH]2)CC1 [Example 132] | 74 | 
73 | Cc1cc(C)c(-n2cc3c(=O)[nH]c(N4CCC5(CC4)COC5)nc3n2)c(C)c1 [Example 118] | 44 | 
74 | Cc1cc(C)c(-n2cc3c(=O)[nH]c(N4CCC(C)C4)nc3n2)c(C)c1 (racemic) [Example 109] | 64 | 
75 | CC(=O)N1CC2CN(c3nc4nn(-c5ccc(C(F)(F)F)cc5Cl)cc4c(=O)[nH]3)CC2C1 (stereo not drawn) [Example 187] | 38 | 
76 | Cc1ccccc1-n1cc2c(=O)[nH]c(N(C)C)nc2n1 [Example 20] | 6500 | 
77 | Cc1cc(C(F)(F)F)cc(C)c1-n1cc2c(=O)[nH]c(N3CCOCCO3)nc2n1 [Example 357] | 28 | 
78 | Cc1cc(Cl)cc(C#N)c1-n1cc2c(=O)[nH]c(N3CCOCC3)nc2n1 [Example 168] | 60 | 
